The target of one series is T1, human mGlu 5a receptor (Homo sapiens, UniProt P41594).
T1 construct: expressed in transfected cells; host or cells: EBNA cells (transient transfection); cell membrane homogenates
As to the kind of experiment: [3H]MPEP competition binding on membranes of EBNA cells transfected with human mGlu 5a receptor. Conditions: [3H]MPEP (2 nM) competition, 1 h at 4° C., EBNA cell membranes. The method, then:
The pharmacological activity of the compounds was tested using the following method: For binding experiments, cDNA encoding human mGlu 5a receptor was transiently transfected into EBNA cells using a procedure described by Schlaeger and Christensen [Cytotechnology 15:1-13 (1998)]. Cell membrane homogenates were stored at −80° C. until the day of assay where upon they were thawed and resuspended and polytronised in 15 mM Tris-HCl, 120 mM NaCl, 100 mM KCl, 25 mM CaCl2, 25 mM MgCl2 binding buffer at pH 7.4 to a final assay concentration of 20 μg protein/well.
Saturation isotherms were determined by addition of twelve [^3H]MPEP concentrations (0.04-100 nM) to these membranes (in a total volume of 200 μl) for 1 h at 4° C. Competition experiments were performed with a fixed concentration of [^3H]MPEP (2 nM) and IC50 values of test compounds evaluated using 11 concentrations (0.3-10,000 nM). Incubations were performed for 1 h at 4° C.
At the end of the incubation, membranes were filtered onto unifilter (96-well white microplate with bonded GF/C filter preincubated 1 h in 0.1% PEI in wash buffer, Packard Bio-Science, Meriden, Conn.) with a Filtermate 96 harvester (Packard BioScience) and washed 3 times with cold 50 mM Tris-HCl, pH 7.4 buffer. Nonspecific binding was measured in the presence of 10 μM MPEP. The radioactivity on the filter was counted (3 min) on a Packard Top-count microplate scintillation counter with quenching correction after addition of 45 μl of microscint 40 (Canberra Packard S. A., Zürich, Switzerland) and shaking for 20 min.
For binding experiments the Ki values of the compounds tested are given. The Ki value is defined by the following formula: […]
in which the IC50 values are those concentrations of the compounds tested which cause 50% inhibition of the competing radioligand ([^3H]MPEP). L is the concentration of radioligand used in the binding experiment and the Kd value of the radioligand is empirically determined for each batch of membranes prepared.

The source of these data is patent publication US20100227887A1 (priority 2009, published 2010).

SMILES strings stand for the structures.

T1 sequence (P41594 21-1180 isoform P41594-2 limits assumed): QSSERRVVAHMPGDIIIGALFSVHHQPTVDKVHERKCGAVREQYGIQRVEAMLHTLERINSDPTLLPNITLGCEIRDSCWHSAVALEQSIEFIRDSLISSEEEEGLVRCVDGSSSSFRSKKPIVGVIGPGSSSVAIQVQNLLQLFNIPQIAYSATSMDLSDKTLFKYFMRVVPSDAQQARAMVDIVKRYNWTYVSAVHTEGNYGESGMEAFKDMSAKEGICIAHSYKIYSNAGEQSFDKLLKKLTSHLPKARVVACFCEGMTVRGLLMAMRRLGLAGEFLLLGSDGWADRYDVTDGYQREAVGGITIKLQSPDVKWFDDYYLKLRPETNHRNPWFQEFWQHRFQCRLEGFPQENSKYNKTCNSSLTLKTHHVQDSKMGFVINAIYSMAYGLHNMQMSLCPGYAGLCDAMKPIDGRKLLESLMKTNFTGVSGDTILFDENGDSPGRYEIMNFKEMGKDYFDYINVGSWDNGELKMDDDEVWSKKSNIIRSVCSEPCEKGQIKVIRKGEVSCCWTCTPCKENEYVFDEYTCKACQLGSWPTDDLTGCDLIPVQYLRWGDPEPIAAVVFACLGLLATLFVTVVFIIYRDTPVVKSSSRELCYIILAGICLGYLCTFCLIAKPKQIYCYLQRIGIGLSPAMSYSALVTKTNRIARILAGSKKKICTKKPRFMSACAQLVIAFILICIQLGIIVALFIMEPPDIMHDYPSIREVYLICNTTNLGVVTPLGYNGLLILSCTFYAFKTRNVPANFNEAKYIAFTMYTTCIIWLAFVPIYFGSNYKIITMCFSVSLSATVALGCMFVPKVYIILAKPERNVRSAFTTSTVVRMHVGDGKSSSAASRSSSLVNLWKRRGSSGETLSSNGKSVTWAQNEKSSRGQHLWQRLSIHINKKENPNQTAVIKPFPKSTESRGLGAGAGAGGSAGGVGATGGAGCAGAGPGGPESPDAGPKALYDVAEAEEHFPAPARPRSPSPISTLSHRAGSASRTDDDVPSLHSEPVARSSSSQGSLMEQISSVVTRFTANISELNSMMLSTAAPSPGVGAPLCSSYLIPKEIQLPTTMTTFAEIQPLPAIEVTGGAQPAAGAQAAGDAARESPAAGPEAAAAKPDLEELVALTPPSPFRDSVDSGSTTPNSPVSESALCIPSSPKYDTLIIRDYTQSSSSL

`N#Cc1cc(CO)nc(C(=O)Nc2cccc(Cl)c2)c1` [Example 40, 4-Cyano-6-hydroxymethyl-pyridine-2-carboxylic acid (3-chloro-phenyl)-amide] came in with a melting point of 167 °C. For the same compound, the inhibition constant Ki at human mGlu 5a receptor turned out to be 0.044 µM.

`N#Cc1cc(C(=O)Nc2ccc(Cl)cn2)nc(C(F)(F)F)c1` [Example 33, 4-Cyano-6-trifluoromethyl-pyridine-2-carboxylic acid (5-chloro-pyridin-2-yl)-amide] gave a melting point of 208 °C. The same measure, in the same setting: the result for `CC(C)c1cc(C#N)cc(C(=O)Nc2ccn(C)n2)n1` [Example 13, 4-Cyano-6-isopropyl-pyridine-2-carboxylic acid (1-methyl-1H-pyrazol-3-yl)-amide] reads 174 °C.

`CCc1cc(C#N)cc(C(=O)Nc2ccn(C)n2)n1` [Example 24, 4-Cyano-6-ethyl-pyridine-2-carboxylic acid (1-methyl-1H-pyrazol-3-yl)-amide] gave a melting point of 164.5 °C. Also, on human mGlu 5a receptor, the Ki came out at 0.036 µM. In the same order, the values of `Cc1cc(C#N)cc(C(=O)Nc2ccc(C#N)cn2)n1` [Example 6, 4-Cyano-6-methyl-pyridine-2-carboxylic acid (5-cyano-pyridin-2-yl)-amide] are 279 °C and 0.109 µM. `Cc1cc(C#N)cc(C(=O)Nc2ccnc(Cl)c2)n1` [Example 22, 4-Cyano-6-methyl-pyridine-2-carboxylic acid (2-chloro-pyridin-4-yl)-amide]: the melting point came to 238.5 °C. The Ki on human mGlu 5a receptor was 0.025 µM. `C#Cc1cc(C)nc(C(=O)Nc2ccn(C)n2)c1` [Example 7, 4-Ethynyl-6-methyl-pyridine-2-carboxylic acid (1-methyl-1H-pyrazol-3-yl)-amide]: the melting point is 226.5 °C. For the same compound, at human mGlu 5a receptor, the inhibition constant (Ki) is 0.033 µM.

`Cc1cc(C#N)cc(C(=O)Nc2cccc(C(F)(F)F)c2)n1` [Example 44, 4-Cyano-6-methyl-pyridine-2-carboxylic acid (3-trifluoromethyl-phenyl)-amide] came in with a melting point of 167 °C. Further, the Ki on human mGlu 5a receptor stood at 0.042 µM.

As for `Cc1cc(C#N)cc(C(=O)Nc2ccnc(F)c2)n1` [Example 48, 4-Cyano-6-methyl-pyridine-2-carboxylic acid (2-fluoro-pyridin-4-yl)-amide], the melting point is 246.5 °C. Besides, the Ki on human mGlu 5a receptor is 0.033 µM. `Cc1cc(C#N)c(C)c(C(=O)Nc2ccc(F)c(C)n2)n1` [Example 28, 4-Cyano-3,6-dimethyl-pyridine-2-carboxylic acid (5-fluoro-6-methyl-pyridin-2-yl)-amide] showed a melting point of 201 °C.

`Cc1cc(C#N)cc(C(=O)Nc2cccc(F)c2)n1` [Example 41, 4-Cyano-6-methyl-pyridine-2-carboxylic acid (3-fluoro-phenyl)-amide] showed a melting point of 139 °C. Further, the Ki on human mGlu 5a receptor was 0.009 µM. Consider `Cc1cc(NC(=O)c2cc(C#N)cc(C)n2)ccn1` [Example 50, 4-Cyano-6-methyl-pyridine-2-carboxylic acid (2-methyl-pyridin-4-yl)-amide], for which the melting point is 302 °C. The inhibition constant (Ki) at human mGlu 5a receptor was 0.099 µM. In the same order, the values of `Cc1cc(C#N)cc(C(=O)Nc2ccc(Cl)cn2)n1` [Example 9, 4-Cyano-6-methyl-pyridine-2-carboxylic acid (5-chloro-pyridin-2-yl)-amide] are 233.5 °C and 0.008 µM. In the same order, the values of `Cc1cc(C#N)cc(C(=O)Nc2cccc(Cl)n2)n1` [Example 23, 4-Cyano-6-methyl-pyridine-2-carboxylic acid (6-chloro-pyridin-2-yl)-amide] are 222.5 °C and 0.008 µM. Compound `Cc1cc(C#N)cc(C(=O)Nc2ccc(F)c(F)c2)n1` [Example 42, 4-Cyano-6-methyl-pyridine-2-carboxylic acid (3,4-difluoro-phenyl)-amide] displayed a melting point of 170 °C. Besides, at human mGlu 5a receptor, the Ki is 0.117 µM. `Cc1cccc(NC(=O)c2cc(Cl)cc(C)n2)c1` [Example 51, 4-Chloro-6-methyl-pyridine-2-carboxylic acid m-tolylamide] came in with a melting point of 95 °C. The Ki at human mGlu 5a receptor amounted to 0.097 µM. In the same order, the values of `Cc1cc(Cl)cc(C(=O)Nc2ccn(C)n2)n1` [Example 2, 4-Chloro-6-methyl-pyridine-2-carboxylic acid (1-methyl-1H-pyrazol-3-yl)-amide] are 203.5 °C and 0.073 µM. `Cc1cc(Cl)cc(C(=O)Nc2ccc(F)cn2)n1` [Example 18, 4-Chloro-6-methyl-pyridine-2-carboxylic acid (5-fluoro-pyridin-2-yl)-amide]: the melting point was 156 °C. At human mGlu 5a receptor, the inhibition constant Ki amounted to 0.03 µM. In turn, `Cc1ccc(NC(=O)c2nc(C)cc(C#N)c2C)nc1` [Example 32, 4-Cyano-3,6-dimethyl-pyridine-2-carboxylic acid (5-methyl-pyridin-2-yl)-amide] had a melting point of 212.5 °C. `Cc1cc(C#N)c(C)c(C(=O)Nc2ccc(F)cn2)n1` [Example 27, 4-Cyano-3,6-dimethyl-pyridine-2-carboxylic acid (5-fluoro-pyridin-2-yl)-amide] came in with a melting point of 196.5 °C. Moreover, the Ki on human mGlu 5a receptor is 0.031 µM.

`CCc1cc(Br)cc(C(=O)Nc2ccc(F)cn2)n1` [Example 21, 4-Bromo-6-ethyl-pyridine-2-carboxylic acid (5-fluoro-pyridin-2-yl)-amide] displayed a melting point of 123.5 °C. In turn, `Cc1cc(Cl)cc(C(=O)Nc2cccc(F)c2)n1` [Example 52, 4-Chloro-6-methyl-pyridine-2-carboxylic acid (3-fluoro-phenyl)-amide] gave a melting point of 123 °C. Compound `Cc1cc(Br)cc(C(=O)Nc2ccc(F)c(C)n2)n1` [Example 10, 4-Bromo-6-methyl-pyridine-2-carboxylic acid (5-fluoro-6-methyl-pyridin-2-yl)-amide] yielded a melting point of 181.5 °C. Besides, the Ki at human mGlu 5a receptor is 0.061 µM. In the same order, the values of `Cc1cccc(NC(=O)c2cc(C#N)cc(C)n2)n1` [Example 47, 4-Cyano-6-methyl-pyridine-2-carboxylic acid (6-methyl-pyridin-2-yl)-amide] are 243.5 °C and 0.018 µM. In turn, `Cc1cc(C#N)cc(C(=O)Nc2ccc(F)cn2)n1` [Example 4, 4-Cyano-6-methyl-pyridine-2-carboxylic acid (5-fluoro-pyridin-2-yl)-amide] displayed a melting point of 204.5 °C. The Ki on human mGlu 5a receptor worked out at 0.006 µM.

In turn, `Cc1cc(C#N)c(C)c(C(=O)Nc2ccc(C#N)cn2)n1` [Example 31, 4-Cyano-3,6-dimethyl-pyridine-2-carboxylic acid (5-cyano-pyridin-2-yl)-amide] registered a melting point of 216 °C. As for `Cc1cc(C#N)c(C)c(C(=O)Nc2ccc(Cl)cn2)n1` [Example 29, 4-Cyano-3,6-dimethyl-pyridine-2-carboxylic acid (5-chloro-pyridin-2-yl)-amide], the melting point came to 264 °C. Also, at human mGlu 5a receptor, the inhibitory constant (Ki) was found to be 0.097 µM. In turn, `Cc1ccc(NC(=O)c2cc(C#N)cc(C)n2)nc1` [Example 5, 4-Cyano-6-methyl-pyridine-2-carboxylic acid (5-methyl-pyridin-2-yl)-amide] came in with a melting point of 196 °C. For the same compound, at human mGlu 5a receptor, the Ki amounted to 0.011 µM. In the same order, the values of `COc1cccc(NC(=O)c2cc(C#N)cc(C)n2)c1` [Example 45, 4-Cyano-6-methyl-pyridine-2-carboxylic acid (3-methoxy-phenyl)-amide] are 189 °C and 0.057 µM.

In turn, `Cc1cc(Cl)cc(C(=O)Nc2ccnc(Cl)c2)n1` [Example 34, 4-Chloro-6-methyl-pyridine-2-carboxylic acid (2-chloro-pyridin-4-yl)-amide] returned a melting point of 221 °C. On the same count and under the same terms, the result for `Cc1cc(C#N)cc(C(=O)Nc2ccc(F)cc2)n1` [Example 39, 4-Cyano-6-methyl-pyridine-2-carboxylic acid (4-fluoro-phenyl)-amide] reads 189 °C; that for `Cn1ccc(NC(=O)c2cc(C#N)cc(C(F)(F)F)n2)n1` [Example 15, 4-Cyano-6-trifluoromethyl-pyridine-2-carboxylic acid (1-methyl-1H-pyrazol-3-yl)-amide], 190.5 °C.

`Cc1cc(NC(=O)c2cc(Cl)cc(C)n2)ccn1` [Example 53, 4-Chloro-6-methyl-pyridine-2-carboxylic acid (2-methyl-pyridin-4-yl)-amide] returned a melting point of 162 °C. Same read-out and setting: the result for `Cc1cc(Cl)cc(C(=O)Nc2ccc(Cl)cn2)n1` [Example 17, 4-Chloro-6-methyl-pyridine-2-carboxylic acid (5-chloro-pyridin-2-yl)-amide] reads 151 °C.

Usually melting point stands for the temperature of the solid-liquid transition. The Ki is the equilibrium dissociation constant of an inhibitor or competing ligand from its target.
